Data taken from PubChem BioAssay AID2060618 (Molecular Pharmacology Branch, DTP, NCI, 2025).
Several values for one entry are separate records, joined by “and”; a condition that tells them apart may be missing. Equal entries are not always repeated. Blank lines part the entries; values can stand above or below the compound they belong to.

System: 454973-116-R2-J3-PDC spheroids, percent test/control viability
Assay: Anticancer human tumor 454973-116-R2-J3-PDC patient-derived pancreatic carcinoma cell line growth inhibition [CLK]
Conditions: spheroids with HUVEC and MSC; for viability, T/C: stronger effect = lower value
Summary of the method: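 Patient-derived tumor cells grown as complex spheroids with HUVEC endothelial cells and mesenchymal stem cells, treated with drug combinations. Concentrations descend in half-log steps from near clinical Cmax, or from 10 microM if Cmax unknown.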

[1] = curve of first compound, second compound 0.0316 µM
[2] = curve of first compound, second compound 0.1 µM
[3] = curve of first compound, second compound 0.316 µM
[4] = curve of first compound, second compound 1 µM
[5] = curve of first compound, second compound 3.16 µM
[6] = curve of first compound, second compound 10 µM
[7] = second compound 0.0316 µM, first compound 0.0316 µM
[8] = second compound 0.0316 µM, first compound 0.1 µM
[9] = second compound 0.0316 µM, first compound 0.316 µM
[10] = second compound 0.0316 µM, first compound 1 µM
[11] = second compound 0.0316 µM, first compound 3.16 µM
[12] = second compound 0.0316 µM, first compound 10 µM
[13] = second compound 0.1 µM, first compound 0.0316 µM
[14] = second compound 0.1 µM, first compound 0.1 µM
[15] = second compound 0.1 µM, first compound 0.316 µM
[16] = second compound 0.1 µM, first compound 1 µM
[17] = second compound 0.1 µM, first compound 3.16 µM
[18] = second compound 0.1 µM, first compound 10 µM
[19] = second compound 0.316 µM, first compound 0.0316 µM
[20] = second compound 0.316 µM, first compound 0.1 µM
[21] = second compound 0.316 µM, first compound 0.316 µM
[22] = second compound 0.316 µM, first compound 1 µM
[23] = second compound 0.316 µM, first compound 3.16 µM
[24] = second compound 0.316 µM, first compound 10 µM
[25] = second compound 1 µM, first compound 0.0316 µM
[26] = second compound 1 µM, first compound 0.1 µM
[27] = second compound 1 µM, first compound 0.316 µM
[28] = second compound 1 µM, first compound 1 µM
[29] = second compound 1 µM, first compound 3.16 µM
[30] = second compound 1 µM, first compound 10 µM
[31] = second compound 3.16 µM, first compound 0.0316 µM
[32] = second compound 3.16 µM, first compound 0.1 µM
[33] = second compound 3.16 µM, first compound 0.316 µM
[34] = second compound 3.16 µM, first compound 1 µM
[35] = second compound 3.16 µM, first compound 3.16 µM
[36] = second compound 3.16 µM, first compound 10 µM
[37] = second compound 10 µM, first compound 0.0316 µM
[38] = second compound 10 µM, first compound 0.1 µM
[39] = second compound 10 µM, first compound 0.316 µM
[40] = second compound 10 µM, first compound 1 µM
[41] = second compound 10 µM, first compound 3.16 µM
[42] = second compound 10 µM, first compound 10 µM
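Also: spheroids exposed to compounds for 7 days before readout.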

IC50 (curve of compound): 1800 nM and 1680 nM
Structure (SMILES): Nc1ccccc1NC(=O)c1ccc(CNC(=O)OCc2cccnc2)cc1
viability, T/C (compound 0.0316 µM): 103% and 100%
viability, T/C (compound 0.1 µM): 96.6% and 102%
viability, T/C (compound 0.316 µM): 90.7% and 89.4%
viability, T/C (compound 1 µM): 71.8% and 70.5%
viability, T/C (compound 3.16 µM): 29.7% and 26.2%
viability, T/C (compound 10 µM): 9.11% and 5.25%

IC50 [1]: < 31.6 nM
IC50 [2]: < 31.6 nM
IC50 [3]: < 31.6 nM
IC50 [4]: < 31.6 nM
IC50 [5]: < 31.6 nM
IC50 [6]: < 31.6 nM
Structure (SMILES): CC(=O)O[C@H]1C(=O)[C@@]2(C)[C@H]([C@H](OC(=O)c3ccccc3)[C@]3(O)C[C@H](OC(=O)[C@H](O)[C@@H](NC(=O)c4ccccc4)c4ccccc4)C(C)=C1C3(C)C)[C@]1(OC(C)=O)CO[C@@H]1C[C@@H]2O + CNC(=O)c1ccc(Nc2nc(OC3CCCC3)c3c(-c4ccc5nc(C)oc5c4)c[nH]c3n2)c(OC)c1
viability, T/C [7]: 7.2%
viability, T/C [8]: 10.3%
viability, T/C [9]: 8.05%
viability, T/C [10]: 8.91%
viability, T/C [11]: 7.98%
viability, T/C [12]: 26.6%
viability, T/C [13]: 10.1%
viability, T/C [14]: 8.61%
viability, T/C [15]: 9.22%
viability, T/C [16]: 10.1%
viability, T/C [17]: 14.3%
viability, T/C [18]: 38%
viability, T/C [19]: 33.1%
viability, T/C [20]: 39.2%
viability, T/C [21]: 43.9%
viability, T/C [22]: 48.2%
viability, T/C [23]: 83%
viability, T/C [24]: 110%
viability, T/C [25]: 45.3%
viability, T/C [26]: 50.2%
viability, T/C [27]: 54.3%
viability, T/C [28]: 60.5%
viability, T/C [29]: 88.4%
viability, T/C [30]: 89.6%
viability, T/C [31]: 38.8%
viability, T/C [32]: 46.5%
viability, T/C [33]: 54.1%
viability, T/C [34]: 51.5%
viability, T/C [35]: 74.2%
viability, T/C [36]: 86.5%
viability, T/C [37]: 36.8%
viability, T/C [38]: 43.2%
viability, T/C [39]: 49.7%
viability, T/C [40]: 60.2%
viability, T/C [41]: 77.1%
viability, T/C [42]: 84.3%

Structure (SMILES): CC1(C)CCC(CN2CCN(c3ccc(C(=O)NS(=O)(=O)c4ccc(NCC5CCOCC5)c([N+](=O)[O-])c4)c(Oc4cnc5[nH]ccc5c4)c3)CC2)=C(c2ccc(Cl)cc2)C1 + CN1CCN(c2cc(C(=O)Nc3cc4cc(-c5cnn(C)c5)ccc4cn3)ccn2)CC1
IC50 [1]: 7120 nM
IC50 [2]: 5230 nM
IC50 [3]: < 31.6 nM
IC50 [4]: < 31.6 nM
IC50 [5]: < 31.6 nM
IC50 [6]: < 31.6 nM
viability, T/C [7]: 99.1%
viability, T/C [8]: 93.8%
viability, T/C [9]: 96.2%
viability, T/C [10]: 110%
viability, T/C [11]: 105%
viability, T/C [12]: 28.6%
viability, T/C [13]: 80%
viability, T/C [14]: 74.3%
viability, T/C [15]: 69.3%
viability, T/C [16]: 84%
viability, T/C [17]: 72.7%
viability, T/C [18]: 20.2%
viability, T/C [19]: 1.7%
viability, T/C [20]: 1.6%
viability, T/C [21]: 2.41%
viability, T/C [22]: 3.39%
viability, T/C [23]: 0.47%
viability, T/C [24]: 2.29%
viability, T/C [25]: 0.12%
viability, T/C [26]: 0.14%
viability, T/C [27]: 0.18%
viability, T/C [28]: 0.14%
viability, T/C [29]: 0.16%
viability, T/C [30]: 0.4%
viability, T/C [31]: 0.18%
viability, T/C [32]: 0.15%
viability, T/C [33]: 0.18%
viability, T/C [34]: 0.24%
viability, T/C [35]: 0.61%
viability, T/C [36]: 0.7%
viability, T/C [37]: 0.14%
viability, T/C [38]: 0.13%
viability, T/C [39]: 0.21%
viability, T/C [40]: 0.2%
viability, T/C [41]: 0.15%
viability, T/C [42]: 0.17%

Structure (SMILES): C=CC(=O)N1CCN(c2nc(=O)n(-c3c(C)ccnc3C(C)C)c3nc(-c4c(O)cccc4F)c(F)cc23)C(C)C1 (stereo not given) + CN1CCN(c2cc(C(=O)Nc3cc4cc(-c5cnn(C)c5)ccc4cn3)ccn2)CC1
IC50 [1]: > 10000 nM
IC50 [2]: > 10000 nM
IC50 [3]: < 31.6 nM
IC50 [4]: < 31.6 nM
IC50 [5]: < 31.6 nM
IC50 [6]: < 31.6 nM
viability, T/C [7]: 97%
viability, T/C [8]: 99.5%
viability, T/C [9]: 103%
viability, T/C [10]: 110%
viability, T/C [11]: 110%
viability, T/C [12]: 119%
viability, T/C [13]: 87.6%
viability, T/C [14]: 88.4%
viability, T/C [15]: 92.6%
viability, T/C [16]: 87.1%
viability, T/C [17]: 98.4%
viability, T/C [18]: 54.7%
viability, T/C [19]: 2.25%
viability, T/C [20]: 2.21%
viability, T/C [21]: 6.18%
viability, T/C [22]: 2.73%
viability, T/C [23]: 4.43%
viability, T/C [24]: 2.46%
viability, T/C [25]: 0.13%
viability, T/C [26]: 1.49%
viability, T/C [27]: 1.16%
viability, T/C [28]: 0.14%
viability, T/C [29]: 0.16%
viability, T/C [30]: 1.96%
viability, T/C [31]: 1.3%
viability, T/C [32]: 0.21%
viability, T/C [33]: 4.08%
viability, T/C [34]: 0.17%
viability, T/C [35]: 4.42%
viability, T/C [36]: 1.08%
viability, T/C [37]: 1.96%
viability, T/C [38]: 0.63%
viability, T/C [39]: 0.4%
viability, T/C [40]: 0.69%
viability, T/C [41]: 0.61%
viability, T/C [42]: 0.21%

IC50 [1]: > 10000 nM
IC50 [2]: > 10000 nM
IC50 [3]: 62.5 nM
IC50 [4]: < 31.6 nM
IC50 [5]: < 31.6 nM
IC50 [6]: < 31.6 nM
Structure (SMILES): C=CC(=O)N1CCN(c2nc(=O)n(-c3c(C)ccnc3C(C)C)c3nc(-c4c(O)cccc4F)c(F)cc23)C(C)C1 (stereo not given) + CNC(=O)c1ccc(Nc2nc(OC3CCCC3)c3c(-c4ccc5nc(C)oc5c4)c[nH]c3n2)c(OC)c1
viability, T/C [7]: 103%
viability, T/C [8]: 113%
viability, T/C [9]: 118%
viability, T/C [10]: 124%
viability, T/C [11]: 122%
viability, T/C [12]: 115%
viability, T/C [13]: 107%
viability, T/C [14]: 113%
viability, T/C [15]: 101%
viability, T/C [16]: 119%
viability, T/C [17]: 113%
viability, T/C [18]: 120%
viability, T/C [19]: 52%
viability, T/C [20]: 48.1%
viability, T/C [21]: 48%
viability, T/C [22]: 47%
viability, T/C [23]: 47.5%
viability, T/C [24]: 45%
viability, T/C [25]: 28.5%
viability, T/C [26]: 30.5%
viability, T/C [27]: 34%
viability, T/C [28]: 32.6%
viability, T/C [29]: 37.3%
viability, T/C [30]: 31.4%
viability, T/C [31]: 32.8%
viability, T/C [32]: 24%
viability, T/C [33]: 30.9%
viability, T/C [34]: 30.9%
viability, T/C [35]: 28.5%
viability, T/C [36]: 25.4%
viability, T/C [37]: 25.2%
viability, T/C [38]: 25.6%
viability, T/C [39]: 25.6%
viability, T/C [40]: 26.1%
viability, T/C [41]: 30.2%
viability, T/C [42]: 23.5%
